From patent US10022374B2, “Certain protein kinase inhibitors” (Shanghai Fochon Pharmaceutical Co., Ltd., priority 2013, dated 2018)
Read-outs that look alike come from different tables or passages of the source.

Tests used:
HT-29 cells = assay: Inhibition of cell proliferation (MTS), HT-29 cells; assay type: cell-based
Description: (§1) MTS testing kit was purchased from Promega. The DMEM, RPMI-1640 and Fetal bovine serum were purchased from Gibco. Dimethyl sulfoxide (DMSO) was purchased from Sigma.
(§2) To investigate whether a compound is able to inhibit the activity of MEK in cells, a mechanism-based assay using A-375 and HT-29 cell was developed. In this assay, inhibition of MEK was detected by the inhibition of A-375 and HT-29 cells proliferation. A-375 and HT-29 cells were cultured in culture flasks to 40-80% confluence respectively in DMEM and RPMI-1640 plus 10% fetal bovine serum. Cells were collected and plated onto 96-well plates at desired cell density (A-375: 3000 cells/well; HT-29: 5000 cells/well). Plates were incubated overnight at 37° C., with 5% CO2 to adhere. Compounds were added to the plates. The final compound concentrations were […], 12.35, 4.12, 1.37, 0.46 and 0.15 nM, respectively. Place plates at 37° C., with 5% CO2 for 72 h. 10 μl MTS were added to each well and incubate the plates for exactly 2 hours. Absorbance was measured at 490 nm. […] was calculated using GraphPad Prism 5.0.

A-375 cells = assay: Inhibition of cell proliferation (MTS), A-375 cells; assay type: cell-based
Description: as §1, §2

[1] = Homo sapiens, HT-29, 72 h, HT-29 cells, 5000 cells/well, 72 h, MTS, absorbance 490 nm, read-out: HT29 IC50
[2] = Homo sapiens, A-375, 72 h, A-375 cells, 3000 cells/well, 72 h, MTS, absorbance 490 nm, read-out: A375 IC50
[3] = Homo sapiens, HT-29, 72 h, read-out: HT29 IC50 (nM)
[4] = Homo sapiens, A-375, 72 h, read-out: A375 IC50 (nM)

SMILES | IC50 (HT-29 cells; [1]) [nM] | IC50 (A-375 cells; [2]) [nM] | further results
C=CCn1nc(-c2cccc(NC(=O)C(C)C)c2)c2c(c(Nc3ccc(I)cc3F)c(F)c(=O)n2C)c1=O [Example 35, N-(3-(6-allyl-3-fluoro-4-(2-fluoro-4-iodophenylamino)-1-methyl-2,5-dioxo-1,2,5,6-tetrahydropyrido[2,3-d]pyridazin-8-yl)phenyl)isobutyramide] | 22.6 | 26.3 | 
Cn1nc(-c2cccc(N3CCCC3=O)c2)c2c(c(Nc3ccc(I)cc3F)c(F)c(=O)n2C)c1=O [Example 54, 3-fluoro-4-((2-fluoro-4-iodophenyl)amino)-1,6-dimethyl-8-(3-(2-oxopyrrolidin-1-yl)phenyl)pyrido[2,3-d]pyridazine-2,5(1H,6H)-dione] |  |  | IC50 (HT-29 cells; [3]): 7.9 nM; IC50 (A-375 cells; [4]): 4.7 nM
CC(=O)Nc1cccc(-c2nn(C3CC3)c(=O)c3c(Nc4ccc(I)cc4F)c(F)c(=O)n(C)c23)c1 [Example 1, N-(3-(6-cyclopropyl-3-fluoro-4-(2-fluoro-4-iodophenylamino)-1-methyl-2,5-dioxo-1,2,5,6-tetrahydropyrido[2,3-d]pyridazin-8-yl)phenyl)acetamide] |  |  | IC50 (HT-29 cells; [3]): 2.4 nM; IC50 (A-375 cells; [4]): 1.2 nM
CCS(=O)(=O)Nc1cccc(-c2nn(CC(O)CO)c(=O)c3c(Nc4ccc(I)cc4F)c(F)c(=O)n(C)c23)c1 (stereo not drawn) [Example 44, N-(3-(6-(2,3-dihydroxypropyl)-3-fluoro-4-(2-fluoro-4-iodophenylamino)-1-methyl-2,5-dioxo-1,2,5,6-tetrahydropyrido[2,3-d]pyridazin-8-yl)phenyl)ethanesulfonamide] | 57.7 | 71.3 | 
CC(C)C(=O)Nc1cccc(-c2nn(C3CC3)c(=O)c3c(Nc4ccc(I)cc4F)c(F)c(=O)n(C)c23)c1 [Example 3, N-(3-(6-cyclopropyl-3-fluoro-4-(2-fluoro-4-iodophenylamino)-1-methyl-2,5-dioxo-1,2,5,6-tetrahydropyrido[2,3-d]pyridazin-8-yl)phenyl)isobutyramide] | 41.4 | 15.3 | 
C=CCn1nc(-c2cccc(NS(C)(=O)=O)c2)c2c(c(Nc3ccc(I)cc3F)c(F)c(=O)n2C)c1=O [Example 31, N-(3-(6-allyl-3-fluoro-4-(2-fluoro-4-iodophenylamino)-1-methyl-2,5-dioxo-1,2,5,6-tetrahydropyrido[2,3-d]pyridazin-8-yl)phenyl)methanesulfonamide] | 7.4 | 1.1 | 
C=CCn1nc(-c2cccc(NC(=O)C3CC3)c2)c2c(c(Nc3ccc(I)cc3F)c(F)c(=O)n2C)c1=O [Example 30, N-(3-(6-allyl-3-fluoro-4-(2-fluoro-4-iodophenylamino)-1-methyl-2,5-dioxo-1,2,5,6-tetrahydropyrido[2,3-d]pyridazin-8-yl)phenyl)cyclopropanecarboxamide] | 76.7 | 80.7 | 
C=CCn1nc(-c2cccc(NS(C)(=O)=O)c2)c2c(c(Nc3ccc(Br)cc3F)c(F)c(=O)n2C)c1=O [Example 37, N-(3-(6-allyl-4-(4-bromo-2-fluorophenylamino)-3-fluoro-1-methyl-2,5-dioxo-1,2,5,6-tetrahydropyrido[2,3-d]pyridazin-8-yl)phenyl)methanesulfonamide] | 42.7 | 32.4 | 
CC(C)S(=O)(=O)N(C)c1cccc(-c2nn(C)c(=O)c3c(Nc4ccc(I)cc4F)c(F)c(=O)n(C)c23)c1 [Example 51, N-(3-(3-fluoro-4-((2-fluoro-4-iodophenyl)amino)-1,6-dimethyl-2,5-dioxo-1,2,5,6-tetrahydropyrido[2,3-d]pyridazin-8-yl)phenyl)-N-methylpropane-2-sulfonamide] |  |  | IC50 (HT-29 cells; [3]): 2 nM; IC50 (A-375 cells; [4]): 2.2 nM
CC(=O)Nc1cccc(-c2nn(CC(O)CO)c(=O)c3c(Nc4ccc(I)cc4F)c(F)c(=O)n(C)c23)c1 (stereo not drawn) [Example 40, N-(3-(6-(2,3-dihydroxypropyl)-3-fluoro-4-(2-fluoro-4-iodophenylamino)-1-methyl-2,5-dioxo-1,2,5,6-tetrahydropyrido[2,3-d]pyridazin-8-yl)phenyl)acetamide] | 1.9 | 2.5 | 
CCC(=O)Nc1cccc(-c2nn(C(C)C)c(=O)c3c(Nc4ccc(I)cc4F)c(F)c(=O)n(C)c23)c1 [Example 10, N-(3-(3-fluoro-4-(2-fluoro-4-iodophenylamino)-6-isopropyl-1-methyl-2,5-dioxo-1,2,5,6-tetrahydropyrido[2,3-d]pyridazin-8-yl)phenyl)propionamide] | 59.6 | 61.2 | 
CCn1nc(-c2cccc(NS(=O)(=O)C3CC3)c2)c2c(c(Nc3ccc(I)cc3F)c(F)c(=O)n2C)c1=O [Example 27, N-(3-(6-ethyl-3-fluoro-4-(2-fluoro-4-iodophenylamino)-1-methyl-2,5-dioxo-1,2,5,6-tetrahydropyrido[2,3-d]pyridazin-8-yl)phenyl)cyclopropanesulfonamide] | < 1 | < 1 | 
Cn1nc(-c2cccc(NS(=O)(=O)C3CC3)c2)c2c(c(Nc3ccc(I)cc3F)c(F)c(=O)n2C)c1=O [Example 23, N-(3-(3-fluoro-4-(2-fluoro-4-iodophenylamino)-1,6-dimethyl-2,5-dioxo-1,2,5,6-tetrahydropyrido[2,3-d]pyridazin-8-yl)phenyl)cyclopropanesulfonamide] | < 1 | < 1 | 
C=CCn1nc(-c2cccc(NC(C)=O)c2)c2c(c(Nc3ccc(Br)cc3F)c(F)c(=O)n2C)c1=O [Example 36, N-(3-(6-allyl-4-(4-bromo-2-fluorophenylamino)-3-fluoro-1-methyl-2,5-dioxo-1,2,5,6-tetrahydropyrido[2,3-d]pyridazin-8-yl)phenyl)acetamide] | 427 | 341 | 
CN(c1cccc(-c2nn(C3CC3)c(=O)c3c(Nc4ccc(I)cc4F)c(F)c(=O)n(C)c23)c1)S(C)(=O)=O [Example 47, N-(3-(6-cyclopropyl-3-fluoro-4-((2-fluoro-4-iodophenyl)amino)-1-methyl-2,5-dioxo-1,2,5,6-tetrahydropyrido[2,3-d]pyridazin-8-yl)phenyl)-N-methylmethanesulfonamide] | 16.6 | 4.9 | 
CCC(=O)Nc1cccc(-c2nn(C3CC3)c(=O)c3c(Nc4ccc(I)cc4F)c(F)c(=O)n(C)c23)c1 [Example 2, N-(3-(6-cyclopropyl-3-fluoro-4-(2-fluoro-4-iodophenylamino)-1-methyl-2,5-dioxo-1,2,5,6-tetrahydropyrido[2,3-d]pyridazin-8-yl)phenyl)propionamide] | 13.7 | 10.6 | 
Cc1ccc(Nc2c(C)c(=O)n(C)c3c(C)n[nH]c(=O)c23)c(F)c1 [Reference Compound, 4-((2-fluoro-4-methylphenyl)amino)-1,3,8-trimethylpyrido[2,3-d]pyridazine-2,5(1H,6H)-dione, reference compound] | > 1000 | > 1000 | 
CC(C)S(=O)(=O)N(C)c1cccc(-c2nn(C3CC3)c(=O)c3c(Nc4ccc(I)cc4F)c(F)c(=O)n(C)c23)c1 [Example 48, N-(3-(6-cyclopropyl-3-fluoro-4-((2-fluoro-4-iodophenyl)amino)-1-methyl-2,5-dioxo-1,2,5,6-tetrahydropyrido[2,3-d]pyridazin-8-yl)phenyl)-N-methylpropane-2-sulfonamide] | 13.2 | 3.4 | 
CC(=O)Nc1cccc(-c2nn(C)c(=O)c3c(Nc4ccc(I)cc4F)c(F)c(=O)n(C)c23)c1 [Example 21, N-(3-(3-fluoro-4-(2-fluoro-4-iodophenylamino)-1,6-dimethyl-2,5-dioxo-1,2,5,6-tetrahydropyrido[2,3-d]pyridazin-8-yl)phenyl)acetamide] | < 1 | 3.9 | 
C=CCn1nc(-c2cccc(NS(=O)(=O)C3CC3)c2)c2c(c(Nc3ccc(I)cc3F)c(F)c(=O)n2C)c1=O [Example 34, N-(3-(6-allyl-3-fluoro-4-(2-fluoro-4-iodophenylamino)-1-methyl-2,5-dioxo-1,2,5,6-tetrahydropyrido[2,3-d]pyridazin-8-yl)phenyl)cyclopropanesulfonamide] |  |  | IC50 (HT-29 cells; HT-29 cells, 5000 cells/well, 72 h, MTS, absorbance 490 nm, read-out: HT29 IC50): 4.6 nM; IC50 (A-375 cells; A-375 cells, 3000 cells/well, 72 h, MTS, absorbance 490 nm, read-out: A375 IC50): 4.2 nM
C=CCn1nc(-c2cccc(NC(C)=O)c2)c2c(c(Nc3ccc(I)cc3F)c(Cl)c(=O)n2C)c1=O [Example 38, N-(3-(6-allyl-3-chloro-4-(2-fluoro-4-iodophenylamino)-1-methyl-2,5-dioxo-1,2,5,6-tetrahydropyrido[2,3-d]pyridazin-8-yl)phenyl)acetamide] |  | 20.8 | 
CC(=O)Nc1cccc(-c2nn(CC(O)CO)c(=O)c3c(Nc4ccc(I)cc4F)c(Cl)c(=O)n(C)c23)c1 (stereo not drawn) [Example 39, N-(3-(3-chloro-6-(2,3-dihydroxypropyl)-4-((2-fluoro-4-iodophenyl)amino)-1-methyl-2,5-dioxo-1,2,5,6-tetrahydropyrido[2,3-d]pyridazin-8-yl)phenyl)acetamide] |  | 22.8 | 
